PubChem BioAssay (NCI)
Several values for one entry are separate records, joined by “and”; a condition that tells them apart may be missing. Equal entries are not always repeated.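 96-well plates; 48 h exposure; 5 concentrations. Endpoints by linear interpolation between flanking doses. Not reached: highest tested concentration assigned. GI50: concentration for 50% inhibition of growth. Definition used: TGI = concentration required for complete inhibition of growth.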

Key:
Test in all cases: growth of human tumour cells (NCI), 48 h
A498 renal = system: A498 renal
MALME-3M melanoma = system: MALME-3M melanoma
EKVX NSCLC = system: EKVX NSCLC
MDA-MB-435 = system: MDA-MB-435
HT29 colon = system: HT29 colon
SF-268 CNS = system: SF-268 CNS
M14 melanoma = system: M14 melanoma
NCI-H226 lung = system: NCI-H226 lung
OVCAR-4 ovarian = system: OVCAR-4 ovarian
SNB-19 CNS = system: SNB-19 CNS

Compound	GI50 (A498 renal)	TGI (A498 renal)	GI50 (MALME-3M melanoma)	TGI (MALME-3M melanoma)	GI50 (EKVX NSCLC)	TGI (EKVX NSCLC)	GI50 (MDA-MB-435)	TGI (MDA-MB-435)	GI50 (HT29 colon)	TGI (HT29 colon)	GI50 (SF-268 CNS)	TGI (SF-268 CNS)	GI50 (M14 melanoma)	TGI (M14 melanoma)	GI50 (NCI-H226 lung)	TGI (NCI-H226 lung)	GI50 (OVCAR-4 ovarian)	TGI (OVCAR-4 ovarian)	GI50 (SNB-19 CNS)	TGI (SNB-19 CNS)
Cc1ccc(C(SCC(N)C(=O)O)(c2ccc(C)cc2)c2ccc(C)cc2)cc1 (stereo not given)	4040 nM	14.6 µM	11.6 µM	26 µM	4.32 µM	39.4 µM	337 nM	1.16 µM	3.55 µM	> 34.8 µM	1890 nM	19.5 µM	729 nM	2.37 µM	9.84 µM	> 49.8 µM	11300 nM	> 48.3 µM	4.97 µM	30.2 µM
CNC(=O)OCc1c2ccncc2c(C)c2c1[nH]c1ccccc12		0.673 µM		1.24 µM		2.24 µM		1.58 µM		1.59 µM		1.65 µM		2.95 µM		1.25 µM		1.38 µM		7.98 µM
COc1ccc2c(c1)[nH]c(=O)c1c3cc(OC)ccc3cn21	< 10.4 nM	1.35 µM	0.139 µM	1.88 µM	0.0728 µM	2.67 µM	< 10 nM	< 0.01 µM	< 0.0143 µM	0.28 µM	< 15.4 nM	1.44 µM	< 10 nM	1.34 µM	0.262 µM	17.4 µM	50 nM	1.82 µM	0.0774 µM	4.32 µM
CCCCCCCCN(CCCCCCCC)CCCCCCNc1cc(OC)cc2cccnc12	15600 nM	30.5 µM	6.92 µM	21.9 µM	6.82 µM	24 µM	3590 nM	12.8 µM	3.63 µM	15.9 µM	12700 nM	30 µM	3330 nM	12.4 µM	17 µM	33.7 µM	5620 nM	19.7 µM	10.5 µM	24.2 µM
C=CC(=O)NCc1cccc(Nc2ncc(Br)c(NCCCNC(=O)C3CCC3)n2)c1	549 nM	2.08 µM	1.62 µM and 1.68 µM	5.78 µM and 6.56 µM	1.59 µM and 2.59 µM	6.07 µM and 14.9 µM	2330 nM and 2140 nM	8.47 µM and 5.75 µM	1.67 µM and 0.27 µM	12.5 µM and 4.83 µM	297 nM and 296 nM	2.57 µM and 4.07 µM	1860 nM and 1190 nM	10.2 µM and 5.91 µM	0.999 µM and 0.448 µM	7.85 µM and 11.8 µM	1670 nM and 1200 nM	6.07 µM and 12.8 µM	1.07 µM and 1.38 µM	12.5 µM and 18.3 µM
COc1ccc(C(=O)COC(=O)[C@H](C[Se][Se]C[C@H](NC(=O)c2ccc(Br)cc2F)C(=O)OCC(=O)c2ccc(OC)cc2)NC(=O)c2ccc(Br)cc2F)cc1	896 nM	8.84 µM	2.04 µM	4.4 µM	0.591 µM	2.35 µM	1510 nM	5.05 µM	0.879 µM	7.48 µM	943 nM	3.21 µM	588 nM	1.85 µM	0.581 µM	2.07 µM	1640 nM	3.1 µM	0.427 µM	4.9 µM
C=CC(C1=CC(=O)C(OC)=CC1=O)c1ccccc1 (stereo not given)		> 100 µM		28.7 µM		30.5 µM		28.3 µM		42 µM		41.3 µM		37.7 µM		39.6 µM		30.1 µM		29.4 µM
NC1CCC(Nc2nc(NCc3ccc(-c4cccs4)nc3)c3ncn(C4CCCC4)c3n2)CC1 (stereo not given)	72.5 nM	0.225 µM	0.122 µM	0.523 µM	0.0426 µM	0.762 µM	28.2 nM	1.08 µM	< 0.0143 µM	0.315 µM	18.8 nM	1.08 µM	25.8 nM	0.337 µM	0.131 µM	1.31 µM	32.6 nM	1.06 µM	0.0302 µM	3.75 µM
C[C@H](Nc1ncnc2nc[nH]c12)c1cc2ccc(F)cc2nc1-c1ccccn1	1020 nM	10.7 µM	> 87.8 µM	> 100 µM	> 70.7 µM	> 100 µM	> 100000 nM	> 100 µM	> 100 µM	> 100 µM	> 100000 nM	> 100 µM	> 100000 nM	> 100 µM	> 89.4 µM	> 100 µM	> 100000 nM	> 100 µM	> 100 µM	> 100 µM
N#Cc1ccccc1NC(=O)C(=O)c1c(O)c2ccccc2oc1=O		> 100 µM		> 100 µM		> 100 µM		> 100 µM		> 100 µM		> 100 µM		> 100 µM		> 100 µM		> 100 µM		> 100 µM
CC1COc2c(N3CCN(C)CC3)c(F)cc3c(=O)c(C(=O)O)cn1c23 (stereo not given)	> 100000 nM	> 100 µM	> 100 µM	> 100 µM	> 100 µM	> 100 µM	> 100000 nM	> 100 µM	> 100 µM	> 100 µM	> 100000 nM	> 100 µM	> 100000 nM	> 100 µM	93.1 µM	> 100 µM	> 100000 nM	> 100 µM	> 100 µM	> 100 µM
CC(=O)c1cc(C(=O)c2ccc3c(c2)Sc2ccccc2N3)c2c(C)cc(C)cn12	76.5 nM	0.686 µM	5.73 µM	> 100 µM	0.636 µM	> 100 µM	46.8 nM	0.237 µM	0.315 µM	0.962 µM	533 nM	> 46.3 µM	253 nM	> 100 µM	0.73 µM	> 100 µM	2200 nM	> 100 µM	0.443 µM	> 100 µM
Clc1ccc2c(c1)N(CCCN1CCCC1)c1ccccc1S2	2200 nM	10.2 µM	3.98 µM	18.5 µM	8 µM	21.6 µM	1920 nM	4.02 µM	3.71 µM	12.9 µM	5750 nM	20.7 µM	1920 nM	3.97 µM	19.4 µM	48.3 µM	7820 nM	21.2 µM	9.63 µM	28.1 µM
C[C@]12CC[C@H](O)C[C@H]1CC[C@@H]1[C@@H]2CC[C@]2(C)[C@@H](C3=CC(=O)OC3)[C@@H](O)C[C@]12O		9.07 µM		4.23 µM		2.78 µM		10.3 µM		11 µM		2.55 µM		5.58 µM		9.8 µM		3.16 µM		15.5 µM
Cc1cc(O)ccc1C1=NN(c2ccc(S(C)(=O)=O)cc2)C(=O)CC1	2780 nM	45.4 µM	5.37 µM	> 100 µM	57.9 µM	> 100 µM	1280 nM	5.83 µM	3.7 µM	32.3 µM	40000 nM	> 100 µM	3850 nM	> 100 µM	> 100 µM	> 100 µM	76900 nM	> 100 µM	50.4 µM	> 100 µM
CS(=O)(=O)Nc1ccc(-c2cc(-c3ccccc3)cc(C(N)=O)c2N)cc1	> 20500 nM	> 25 µM	> 25 µM	> 25 µM	> 25 µM	> 25 µM	> 25000 nM	> 25 µM	> 25 µM	> 25 µM	> 25000 nM	> 25 µM	> 25000 nM	> 25 µM	> 25 µM	> 25 µM	> 21600 nM	> 25 µM	> 25 µM	> 25 µM
COc1cc(-c2nc3ccccc3s2)ccc1NC(=O)COc1ccc(Cl)cc1	44500 nM	> 100 µM	5.07 µM	> 100 µM	8.67 µM	> 100 µM	8160 nM	> 100 µM	3.66 µM	> 100 µM	3020 nM	50.4 µM	8540 nM	> 100 µM	4.31 µM	59.2 µM	3900 nM	93.2 µM	3.71 µM	19.4 µM
O=[N+]([O-])c1ccc(Sc2ncnc3nc[nH]c23)c2nonc12	8460 nM	20.5 µM	13.1 µM	> 100 µM	18.1 µM	36.5 µM	3040 nM	17.1 µM	3.88 µM	20.6 µM	5000 nM	19.7 µM	940 nM	13.5 µM	11.7 µM	30.5 µM	811 nM	16.9 µM	20.8 µM	41.9 µM
